Results taken from patent US20250368666A1, “INDAZOLE COMPOUNDS” (TYRA BIOSCIENCES, INC., priority 2022, published 2025).
Where a name gives a salt, the structure may show the parent alone.

Key:
FGFR1 = biological target: T1, FGFR1 (Homo sapiens, UniProt P11362); assay: Kinase binding assay (kinase-tagged T7 phage, affinity beads, qPCR), Kd; conditions: read-out: FGFR1 (Kd nM)
T1 construct: made in house; host or cells: E. coli (BL21-derived), T7 phage
Method in brief: (§1)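 Competition binding; kinase-tagged T7 phage lysate vs immobilised biotinylated ligand on streptavidin beads, 0.9% DMSO final. 11-pt 3-fold dilutions, 3 DMSO controls. qPCR of eluted kinase; Kd by Hill fit, slope −1.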

FGFR2 = biological target: T2, FGFR2 (Homo sapiens, UniProt P21802); assay: as above; conditions: read-out: FGFR2 (Kd nM)
T2 construct: made in house; host or cells: E. coli (BL21-derived), T7 phage
Method in brief: as §1

FGFR3 = biological target: T3, FGFR3 (Homo sapiens, UniProt P22607); assay: as above; conditions: read-out: FGFR3 (Kd nM)
T3 construct: made in house; host or cells: E. coli (BL21-derived), T7 phage
Method in brief: as §1

FGFR3 (V555M) = biological target: T4, FGFR3 (V555M) (Homo sapiens, UniProt P22607, V555M); assay: as above; conditions: V555M mutant; read-out: FGFR3 (V555M) (Kd nM)
T4 construct: made in house; host or cells: E. coli (BL21-derived), T7 phage
Method in brief: as §1

FGFR4 = biological target: T5, FGFR4 (Homo sapiens, UniProt P22455); assay: as above; conditions: read-out: FGFR4 (Kd nM)
T5 construct: made in house; host or cells: E. coli (BL21-derived), T7 phage
Method in brief: as §1

[1] = tested on: KATO-III cell line (FGFR2 amplification); assay: Cancer cell line cell viability assay (Cell Titer-Glo), 72 hr; format: cell-based; conditions: Homo sapiens, KATO III
Method in brief: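 Intracellular ATP was measured by Cell Titer-Glo 2.0 luminescence after cells were incubated with compound dilutions (top 3 μM, 4-fold, 9 doses). Values were expressed relative to DMSO-treated cells and IC50 was calculated from a variable-slope dose-response curve.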

[2] = tested on: KG-1 cell line (FGFR 1-fusion); assay: as above; format: cell-based; conditions: Homo sapiens, KG-1, KG-1 cell line (FGFR1-fusion)
Method in brief: (§2)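 Cells were seeded at 5,000–20,000 per well, then exposed to a 9-point, 4-fold dilution series from 3 μM top concentration in triplicate at 37° C. Exposure was 120 h for MDA-MB-453 and HuH7 and 72 h for KG-1 and RT112/84. Viability was read as ATP by Cell Titer-Glo 2.0, expressed as % of DMSO control, and fitted by 4-parameter IC50.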

[3] = tested on: RT112/84 cell line (FGFR3-fusion); assay: as above; format: cell-based; conditions: Homo sapiens, RT112/84, RT112/84 cell line (FGFR3-fusion)
Method in brief: as §2

T2 sequence (P21802 22-821): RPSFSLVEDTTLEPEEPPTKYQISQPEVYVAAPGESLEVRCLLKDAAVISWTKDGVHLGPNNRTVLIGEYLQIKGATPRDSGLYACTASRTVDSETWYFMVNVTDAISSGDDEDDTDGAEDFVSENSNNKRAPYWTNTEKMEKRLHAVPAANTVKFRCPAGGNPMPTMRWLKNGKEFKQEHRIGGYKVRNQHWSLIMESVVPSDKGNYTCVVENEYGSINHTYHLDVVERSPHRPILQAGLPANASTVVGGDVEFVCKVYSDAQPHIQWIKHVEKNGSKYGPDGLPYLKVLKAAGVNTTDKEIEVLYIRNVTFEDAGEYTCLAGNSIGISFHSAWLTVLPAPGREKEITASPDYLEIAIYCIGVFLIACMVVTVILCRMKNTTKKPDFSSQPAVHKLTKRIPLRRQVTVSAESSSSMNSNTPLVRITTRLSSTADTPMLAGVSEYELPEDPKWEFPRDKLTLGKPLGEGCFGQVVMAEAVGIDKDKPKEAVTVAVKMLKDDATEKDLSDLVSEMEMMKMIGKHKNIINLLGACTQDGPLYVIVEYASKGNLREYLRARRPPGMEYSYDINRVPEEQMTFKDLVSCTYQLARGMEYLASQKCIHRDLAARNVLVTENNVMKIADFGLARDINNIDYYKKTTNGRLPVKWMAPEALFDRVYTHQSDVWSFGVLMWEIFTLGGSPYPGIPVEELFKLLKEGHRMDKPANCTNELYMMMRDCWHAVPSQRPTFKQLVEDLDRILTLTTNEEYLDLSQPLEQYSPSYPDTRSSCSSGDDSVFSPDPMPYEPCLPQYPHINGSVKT
T4 sequence (P22607 23-806 V555M): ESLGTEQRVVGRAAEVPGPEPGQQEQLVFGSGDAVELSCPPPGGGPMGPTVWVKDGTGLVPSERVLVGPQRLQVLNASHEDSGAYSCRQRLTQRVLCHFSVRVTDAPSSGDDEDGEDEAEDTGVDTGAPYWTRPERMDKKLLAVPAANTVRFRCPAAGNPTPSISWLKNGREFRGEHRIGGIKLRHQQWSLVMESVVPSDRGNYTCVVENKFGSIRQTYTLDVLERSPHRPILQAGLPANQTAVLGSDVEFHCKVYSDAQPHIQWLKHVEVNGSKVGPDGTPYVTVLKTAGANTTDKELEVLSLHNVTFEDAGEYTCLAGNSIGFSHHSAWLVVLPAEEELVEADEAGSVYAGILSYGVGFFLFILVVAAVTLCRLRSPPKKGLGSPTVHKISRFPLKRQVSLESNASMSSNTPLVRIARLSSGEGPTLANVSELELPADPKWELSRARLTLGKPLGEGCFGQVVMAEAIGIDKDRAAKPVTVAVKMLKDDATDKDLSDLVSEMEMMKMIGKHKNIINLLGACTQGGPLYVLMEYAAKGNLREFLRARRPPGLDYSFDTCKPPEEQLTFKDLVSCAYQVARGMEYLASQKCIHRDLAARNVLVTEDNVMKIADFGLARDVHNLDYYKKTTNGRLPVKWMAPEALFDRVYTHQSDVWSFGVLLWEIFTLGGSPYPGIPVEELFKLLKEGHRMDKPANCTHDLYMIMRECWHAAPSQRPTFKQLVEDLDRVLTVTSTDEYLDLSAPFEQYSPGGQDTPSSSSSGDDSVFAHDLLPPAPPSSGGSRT
T1 sequence (P11362 22-822): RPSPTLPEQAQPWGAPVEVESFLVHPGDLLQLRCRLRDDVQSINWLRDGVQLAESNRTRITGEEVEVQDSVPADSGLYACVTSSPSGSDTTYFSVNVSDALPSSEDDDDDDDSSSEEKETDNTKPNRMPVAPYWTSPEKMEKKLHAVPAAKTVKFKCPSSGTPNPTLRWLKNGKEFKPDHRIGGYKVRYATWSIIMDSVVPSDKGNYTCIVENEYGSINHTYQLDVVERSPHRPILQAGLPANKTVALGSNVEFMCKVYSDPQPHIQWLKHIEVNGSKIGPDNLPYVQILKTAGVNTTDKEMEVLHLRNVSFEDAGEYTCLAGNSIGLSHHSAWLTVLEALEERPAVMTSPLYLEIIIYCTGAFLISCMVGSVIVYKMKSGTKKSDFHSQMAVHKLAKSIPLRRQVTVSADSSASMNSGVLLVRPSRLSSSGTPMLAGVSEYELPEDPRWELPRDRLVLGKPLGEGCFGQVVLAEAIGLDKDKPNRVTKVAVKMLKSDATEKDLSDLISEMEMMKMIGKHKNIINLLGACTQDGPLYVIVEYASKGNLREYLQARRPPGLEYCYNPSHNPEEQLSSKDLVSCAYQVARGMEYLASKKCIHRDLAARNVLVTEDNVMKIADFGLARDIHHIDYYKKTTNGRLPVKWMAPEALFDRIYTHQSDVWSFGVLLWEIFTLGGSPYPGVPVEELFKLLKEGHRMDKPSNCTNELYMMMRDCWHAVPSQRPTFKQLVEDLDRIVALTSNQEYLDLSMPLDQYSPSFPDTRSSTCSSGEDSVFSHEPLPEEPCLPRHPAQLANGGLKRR
T5 sequence (P22455 22-802): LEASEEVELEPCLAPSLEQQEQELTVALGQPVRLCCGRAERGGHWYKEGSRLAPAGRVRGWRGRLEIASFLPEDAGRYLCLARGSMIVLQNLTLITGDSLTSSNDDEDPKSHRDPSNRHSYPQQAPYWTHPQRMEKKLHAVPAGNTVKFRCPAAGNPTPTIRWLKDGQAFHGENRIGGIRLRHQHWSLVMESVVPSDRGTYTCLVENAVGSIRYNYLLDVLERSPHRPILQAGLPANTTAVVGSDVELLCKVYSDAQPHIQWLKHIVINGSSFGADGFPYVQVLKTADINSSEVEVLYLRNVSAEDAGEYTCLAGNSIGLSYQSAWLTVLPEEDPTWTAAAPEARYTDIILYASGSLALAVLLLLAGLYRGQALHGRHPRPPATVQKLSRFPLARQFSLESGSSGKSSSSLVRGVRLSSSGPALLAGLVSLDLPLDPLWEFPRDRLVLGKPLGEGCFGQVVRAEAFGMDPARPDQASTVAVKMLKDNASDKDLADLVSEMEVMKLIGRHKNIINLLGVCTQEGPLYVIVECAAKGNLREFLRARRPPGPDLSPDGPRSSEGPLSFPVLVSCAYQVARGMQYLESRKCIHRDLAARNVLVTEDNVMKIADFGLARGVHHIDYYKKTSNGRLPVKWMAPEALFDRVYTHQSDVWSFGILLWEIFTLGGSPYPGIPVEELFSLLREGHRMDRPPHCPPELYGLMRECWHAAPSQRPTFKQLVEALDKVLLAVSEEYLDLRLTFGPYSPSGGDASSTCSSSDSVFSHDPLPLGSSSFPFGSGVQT
T3 sequence (P22607 23-806): as the sequence (P22607 23-806 V555M) above, with M533V counted along it

Row | Compound | Kd (FGFR1) | Kd (FGFR2) | Kd (FGFR3) | Kd (FGFR3 (V555M)) | Kd (FGFR4) | IC50 [1] | IC50 [2] | IC50 [3]
1 | C[C@@H](Oc1ccc2[nH]nc(-c3ccc(N4CC(C)(NC5COC5)C4)nc3)c2c1)c1c(Cl)cncc1Cl [Example 64, (R)-1-(5-(5-(1-(3,5-dichloropyridin-4-yl)ethoxy)-1H-indazol-3-yl)pyridin-2-yl)-3-methyl-N-(oxetan-3-yl)azetidin-3-amine] | 1 to 50 nM | 1 to 50 nM | 1 to 50 nM | 1 to 50 nM | 1 to 50 nM | 0.1 to 50 nM | 0.1 to 50 nM | 0.1 to 50 nM
2 | C[C@@H]1CN(C2(C)CN(c3ccc(-c4n[nH]c5ccc(O[C@H](C)c6c(Cl)cncc6Cl)cc45)cn3)C2)CCO1 [Example 211, (R)-4-(1-(5-(5-((R)-1-(3,5-dichloropyridin-4-yl)ethoxy)-1H-indazol-3-yl)pyridin-2-yl)-3-methylazetidin-3-yl)-2-methylmorpholine] | 1 to 50 nM | 1 to 50 nM | 1 to 50 nM | 1 to 50 nM | 1 to 50 nM | 0.1 to 50 nM | 50 to 200 nM | 0.1 to 50 nM
3 | C[C@@H](Oc1cc2c(-c3cnc(N4CC(C)(N5CCOCC5)C4)c(F)c3)n[nH]c2cc1F)c1c(Cl)cncc1Cl [Example 158, (R)-4-(1-(5-(5-(1-(3,5-Dichloropyridin-4-yl)ethoxy)-6-fluoro-1H-indazol-3-yl)-3-fluoropyridin-2-yl)-3-methylazetidin-3-yl)morpholine] | 1 to 50 nM | 1 to 50 nM | 1 to 50 nM | 1 to 50 nM | 1 to 50 nM | 0.1 to 50 nM | 50 to 200 nM | 0.1 to 50 nM
4 | CC(C)NC1(C)CN(c2ncc(-c3n[nH]c4ccc(O[C@H](C)c5c(Cl)cncc5Cl)cc34)cc2F)C1 [Example 117, (R)-1-(5-(5-(1-(3,5-dichloropyridin-4-yl)ethoxy)-1H-indazol-3-yl)-3-fluoropyridin-2-yl)-N-isopropyl-3-methylazetidin-3-amine] | 1 to 50 nM | 1 to 50 nM | 1 to 50 nM | 1 to 50 nM | 1 to 50 nM | 50 to 200 nM | 50 to 200 nM | 0.1 to 50 nM
5 | CCNC1(C)CN(c2ncc(-c3n[nH]c4ccc(O[C@H](C)c5c(Cl)cncc5Cl)cc34)cc2F)C1 [Example 149, 1-[5-[5-[(1R)-1-(3,5-dichloro-4-pyridyl)ethoxy]-1H-indazol-3-yl]-3-fluoro-2-pyridyl]-N-ethyl-3-methyl-azetidin-3-amine] | 1 to 50 nM | 1 to 50 nM | 1 to 50 nM | 1 to 50 nM | 1 to 50 nM | 0.1 to 50 nM | 0.1 to 50 nM | 0.1 to 50 nM
6 | CCNC1(C)CN(c2ncc(-c3n[nH]c4cc(OC)c(O[C@H](C)c5c(Cl)cncc5Cl)cc34)cc2C#N)C1 [Example 341, (R)-5-(5-(1-(3,5-Dichloropyridin-4-yl)ethoxy)-6-methoxy-1H-indazol-3-yl)-2-(3-(ethylamino)-3-methylazetidin-1-yl)nicotinonitrile HCl] | 1 to 50 nM | 1 to 50 nM | 1 to 50 nM | 1 to 50 nM | 1 to 50 nM | 50 to 200 nM | 0.1 to 50 nM | 0.1 to 50 nM
7 | C[C@@H](O)CNC1(C)CN(c2ccc(-c3n[nH]c4ccc(O[C@H](C)c5c(Cl)cncc5Cl)cc34)cn2)C1 [Example 91, (R)-1-((1-(5-(5-((R)-1-(3,5-dichloropyridin-4-yl)ethoxy)-1H-indazol-3-yl)pyridin-2-yl)-3-methylazetidin-3-yl)amino)propan-2-ol] | 1 to 50 nM | 1 to 50 nM | 1 to 50 nM | 1 to 50 nM | 1 to 50 nM | 0.1 to 50 nM | 0.1 to 50 nM | 0.1 to 50 nM
8 | C[C@@H](Oc1ccc2[nH]nc(-c3ccc(N4CC(C)(OCC(C)(C)O)C4)nc3)c2c1)c1c(Cl)cncc1Cl [Example 93, (R)-1-((1-(5-(5-(1-(3,5-dichloropyridin-4-yl)ethoxy)-1H-indazol-3-yl)pyridin-2-yl)-3-methylazetidin-3-yl)oxy)-2-methylpropan-2-ol] | 1 to 50 nM | 1 to 50 nM | 1 to 50 nM | 1 to 50 nM | 1 to 50 nM | 0.1 to 50 nM | 50 to 200 nM | 0.1 to 50 nM
9 | C[C@@H](Oc1ccc2[nH]nc(-c3cnc(N4CC(C)(N5CC(C)(C)C5)C4)c(F)c3)c2c1)c1c(Cl)cncc1Cl [Example 111, (R)-5-(1-(3,5-dichloropyridin-4-yl)ethoxy)-3-(5-fluoro-6-(3,3,3′-trimethyl-[1,3′-biazetidin]-1′-yl)pyridin-3-yl)-1H-indazole] | 1 to 50 nM | 1 to 50 nM | 1 to 50 nM | 1 to 50 nM | 1 to 50 nM | 0.1 to 50 nM | 50 to 200 nM | 0.1 to 50 nM
10 | C[C@@H](Oc1ccc2[nH]nc(-c3ccc(N4CC(C)(NC5CCC5)C4)nc3)c2c1)c1c(Cl)cncc1Cl [Example 63, (R)-N-cyclobutyl-1-(5-(5-(1-(3,5-dichloropyridin-4-yl)ethoxy)-1H-indazol-3-yl)pyridin-2-yl)-3-methylazetidin-3-amine] | 1 to 50 nM | 1 to 50 nM | 1 to 50 nM | 1 to 50 nM | 1 to 50 nM | 0.1 to 50 nM | 50 to 200 nM | 0.1 to 50 nM
11 | COc1cc2[nH]nc(-c3cnc(N4CC(C)(NC[C@@H](C)O)C4)c(F)c3)c2cc1O[C@H](C)c1c(Cl)cncc1Cl [Example 161, (R)-1-((1-(5-(5-((R)-1-(3,5-dichloropyridin-4-yl)ethoxy)-6-methoxy-1H-indazol-3-yl)-3-fluoropyridin-2-yl)-3-methylazetidin-3-yl)amino)propan-2-ol] | 1 to 50 nM | 1 to 50 nM | 1 to 50 nM | 1 to 50 nM | 1 to 50 nM | 0.1 to 50 nM | 0.1 to 50 nM | 0.1 to 50 nM
12 | Cc1ncc(Cl)c([C@@H](C)Oc2ccc3[nH]nc(-c4ccc(N5CC(C)(NC6CCC6)C5)nc4)c3c2)c1Cl [Example 71, N-cyclobutyl-1-[5-[5-[(1R)-1-(3,5-dichloro-2-methyl-4-pyridyl)ethoxy]-1H-indazol-3-yl]-2-pyridyl]-3-methyl-azetidin-3-amine] | 1 to 50 nM | 1 to 50 nM | 1 to 50 nM | 1 to 50 nM | 1 to 50 nM | 50 to 200 nM | 200 to 1000 nM | 0.1 to 50 nM
13 | COc1cc2[nH]nc(-c3ccc(N4CC(C)(N[C@H]5CCOC5)C4)nc3)c2cc1O[C@H](C)c1c(Cl)cncc1Cl [Example 66, 1-(5-(5-((R)-1-(3,5-dichloropyridin-4-yl)ethoxy)-6-methoxy-1H-indazol-3-yl)pyridin-2-yl)-3-methyl-N-((S)-tetrahydrofuran-3-yl)azetidin-3-amine] | 1 to 50 nM | 1 to 50 nM | 1 to 50 nM | 1 to 50 nM | 1 to 50 nM | 0.1 to 50 nM | 0.1 to 50 nM | 0.1 to 50 nM
14 | C[C@@H](Oc1ccc2[nH]nc(-c3cnc(N4CC(C)(N5CCC5)C4)c(F)c3)c2c1)c1c(Cl)cncc1Cl [Example 103, (R)-5-(1-(3,5-dichloropyridin-4-yl)ethoxy)-3-(5-fluoro-6-(3′-methyl-[1,3′-biazetidin]-1′-yl)pyridin-3-yl)-1H-indazole] | 1 to 50 nM | 1 to 50 nM | 1 to 50 nM | 1 to 50 nM | 1 to 50 nM | 0.1 to 50 nM | 0.1 to 50 nM | 0.1 to 50 nM
15 | C[C@@H](Oc1ccc2[nH]nc(-c3ccc(N4CC(C)(N5CC6CC(C5)O6)C4)nc3)c2c1)c1c(Cl)cncc1Cl [Example 222, 3-(1-(5-(5-((R)-1-(3,5-dichloropyridin-4-yl)ethoxy)-1H-indazol-3-yl)pyridin-2-yl)-3-methylazetidin-3-yl)-6-oxa-3-aza-bicyclo[3.1.1]hep-tane] | 1 to 50 nM | 1 to 50 nM | 1 to 50 nM | 1 to 50 nM | 1 to 50 nM | 0.1 to 50 nM | 0.1 to 50 nM | 0.1 to 50 nM
16 | Cc1ncc(Cl)c([C@@H](C)Oc2ccc3[nH]nc(-c4ccc(N5CC(C)(NC6COC6)C5)nc4)c3c2)c1Cl [Example 70, 1-[5-[5-[(1R)-1-(3,5-dichloro-2-methyl-4-pyridyl)ethoxy]-1H-indazol-3-yl]-2-pyridyl]-3-methyl-N-(oxetan-3-yl)azetidin-3-amine] | 1 to 50 nM | 1 to 50 nM | 1 to 50 nM | 1 to 50 nM | 1 to 50 nM | 0.1 to 50 nM | 50 to 200 nM | 0.1 to 50 nM
